In patent publication US20030083237A1, “Anti-angiogenic peptides for cancer treatment” (priority 2001, published 2003):
Ends that are not written are not given here. Peptide text beside a SMILES is read from it.

Tested on: BCE cells (Bovine Capillary Endothelial cells)
Format: cell-based
Conditions: for inhibiting the growth of BCE cells (in-vitro inhibition studies, FIG. 2): result in words
Method: The inhibition of said peptides on the endothelial cells was performed on BCE cells (Bovine Capillary Endothelial cells) as shown in Example 9. The inhibition of said peptide on the endothelial cells was performed on BCE cells (Folkman et al, Proceedings of the National Academy of Sciences USA. 76: 5217-5221 (1979)). The medium contains 90% DMEM (Dulbecco's Modified Eagle Medium), 10% FBS (fetal bovine serum), and 2 ng/mL of bFGF (basic fibroblast growth factor). A 24-well platelet was used for the growth of the BCE cells. To each well, 8,000-10,000 cells and 0.5 mL of the medium were added. The medium in each of the test wells was replaced by medium containing P1, P2, P3, P4, P5, P6, P7, or AK38 after 12 hours and continue to grow 5-7 days at 37° C. the BCE cells, in comparison to the control samples, to evaluate the inhibition on the growth of endothelial cells. The concentration inhibiting 50% of the cell growth is defined as IC50. […] (FIG. 6)

Row | IC50 [nM] | Compound | inhibiting the growth of BCE cells (in-vitro inhibition studies, FIG. 2)
1 | 100 | CC[C@H](C)[C@H](NC(=O)[C@H](CC(=O)O)NC(=O)CNC(=O)[C@H](CC(=O)O)NC(=O)[C@@H]1CCCN1C(=O)[C@H](CC(N)=O)NC(=O)[C@H](CCCNC(=N)N)NC(C)=O)C(=O)N[C@@H](CC(N)=O)C(=O)NCC(=O)N1CCC[C@H]1C(=O)N[C@@H](Cc1c[nH]c2ccccc12)C(N)=O [Peptide P4, Arg-Asn-Pro-Asp-Gly-Asp-Ile-Asn-Gly-Pro-Trp] (Ac-RNPDGDINGPW-NH2) | very effective
2 | 45 | CSCC[C@H](NC(=O)[C@@H](NC(=O)[C@H](Cc1ccc(O)cc1)NC(C)=O)[C@@H](C)O)C(=O)N[C@@H](CC(N)=O)C(=O)N1CCC[C@H]1C(=O)N[C@@H](CCCNC(=N)N)C(=O)N[C@@H](CCCCN)C(=O)N[C@@H](CC(C)C)C(=O)N[C@@H](Cc1ccccc1)C(=O)N[C@@H](CC(=O)O)C(=O)N[C@@H](Cc1ccc(O)cc1)C(N)=O [Peptide P5, Tyr-Thr-Met-Asn-Pro-Arg-Lys-Leu-Phe-Asp-Tyr] (Ac-YTMNPRKLFDY-NH2) | very effective
3 |  | ASSSFD [Peptide P7, protected form of peptide {7} of AK38 kringle] | none of the four peptides (P1, P2, P6, and P7) is significantly effective
4 |  | Asp-Ile-Pro-Leu (DIPL; printed: Asp-Ile-Pro-Leu) [Peptide P6, protected form of peptide {6} of AK38 kringle] | none of the four peptides (P1, P2, P6, and P7) is significantly effective
5 |  | IVPSLGPPSEQD [Peptide P1, protected form of peptide {1} of AK38 kringle] | none of the four peptides (P1, P2, P6, and P7) is significantly effective
6 |  | MFGNGKGYRGKKATTVTGTP [Peptide P2, protected form of peptide {2} of AK38 kringle] | none of the four peptides (P1, P2, P6, and P7) is significantly effective
7 |  | QQWAAQEPHRHSTFIPGTNKWAGLEKNY [Peptide P3, protected form of peptide {3} of AK38 kringle] | minor inhibition effect
